Measurements: patent US8512971B2, “Compounds and methods of use thereof for assaying lysophospholipase D activity” (Echelon Biosciences, Inc., priority 2002, dated 2013)

Experiments:
[1] = molecular target: T1, purified lysoPLD from human serum (Homo sapiens, UniProt Q13822); details: cited from earlier work
T1 construct: The purified lysoPLD from human serum; host or cells: human serum (purified; values quoted from Tokumura et al., J. Biol. Chem. 277:39436-42, 2002)

lysoPLD = lysoPLD (Bos taurus, UniProt A1A4K5); details: 25° C.
Method: FIG. 9 illustrates the evaluation of the fluorogenic substrate FS-1 using fetal bovine serum which is known to be a rich source of LPA that is “self-regenerating” through the in situ activity of lysoPLD. (Umezu-Goto, et al., Journal of Cell Biology, 158:227-33. (2002)) A 10 mM stock solution of FS-1 in MeOH was added to 50 μL solutions of 1% or 10% FBS in PBS and incubated at 25° C. overnight. Measurements were taken on a Hewlett Packard Fusion instrument at 1, 3, 5, and 18 hours.

| Molecule | Km [1] | Vmax [1] | fluorescence change on cleavage of the quenched substrate (lysoPLD; 1% or 10% FBS in PBS, read at 1, 3, 5 and 18 hours, unoptimized assay) | substrate concentration of optimal conversion (lysoPLD; FBS in PBS) |
| --- | --- | --- | --- | --- |
| CCCCCCCCCCCCCCCC(=O)OC[C@@H](O)COP(=O)([O-])OCC[N+](C)(C)C [16:0 LPC] | 260 µM | 103 nmol/min |  |  |
| DABCYL-aminoethyl (N-BODIPY-FL®-aminocaproyl)-2-tert-buiylglycerylphosphate [FS-1] |  |  | increase in fluorescence with time | 100 µM |
